Earlier results in patent US12240810B2, “Chiral-substituted poly-N-vinylpyrrolidinones and complexes with bimetallic nanoclusters and uses thereof in asymmetric oxidation reactions” (Kansas State University Research Foundation, priority 2019, dated 2025).
Values after ≈ are worked out from the molar mass of the structure shown.

Tested on: Staphylococcus aureus
Details: antibacterial activity, background statement on the natural product

CC=CCCCC[C@@]1(O)[C@H](C)C(=O)N2CCC[C@@]21CO [compound 113, (−)-Penibruguieramine A]
MIC value: 6.4 µg/mL (≈ 22.7 µM)
